Here are results for six compounds from ChEMBL document CHEMBL1152111, “Synthesis and biological activity of conformationally constrained 4a-phenanthreneamine derivatives as noncompetitive NMDA antagonists” (Bioorg Med Chem Lett, 1993).

Data set [1] is described as follows: Log P value at pH 7.4. The format is physicochemical. To be noted: buffer.
For data set [2], the species on record is Mus musculus. As to the kind of experiment: Ataxia assessment was made immediately prior to NMDA injection using a rotarod measurement. The format is functional.
Data set [3] relates to Mus musculus. As to the kind of experiment: In vivo NMDA antagonism of compound was assessed for its ability to prevent lethality in mice due to injection of NMDA. The format is functional.
The target in data set [4] is Glutamate NMDA receptor. As to the kind of experiment: Inhibitory concentration of compound required to displace [3H]TCP 1-[ 1-(2-thienyl)cyclohexyl]piperidine in whole rat brain homogenate.
For data set [5], the system named is Mus musculus. Put plainly: In vivo NMDA antagonism of compound was assessed for its ability to prevent lethality in mice due to injection of NMDA. The format is functional.

A word on the logD: it is the decadic logarithm of the distribution of all forms, ionised or not, between an organic phase and buffer at a given pH. As a reminder, the ED50 is the dose at which the effect has come halfway, by size or by number of responders. In general, IC50 refers to the concentration that inhibits the measured activity by half. The compound `CN1C[C@@H]2Cc3ccccc3[C@]13CCCC[C@@H]23` came in with a logD in data set [1] of 0.94. Besides, the figures for the ED50 in data set [2] and in data set [3] were 3 mg/kg and 1.8 mg/kg, respectively. Moreover, the 50% inhibitory concentration (IC50) in data set [4] worked out at 137 nM.
Take `CN[C@]12CCCC[C@H]1CCc1ccccc12`: in data set [1], the log distribution coefficient (logD) stood at 1.1. The results for the ED50 in data set [2] and in data set [5] were 0.44 mg/kg and 0.54 mg/kg, respectively. Moreover, the IC50 in data set [4] came to 14.7 nM.
`CN1CC[C@]23CCCC[C@@]12c1ccccc1CC3` gave a logD in data set [1] of 0.53. Besides, the ED50 in data set [2] was found to be 0.3 mg/kg; in data set [5], 0.72 mg/kg. Besides, the IC50 in data set [4] was 16.8 nM.
On the same counts, the results for `c1ccc2c(c1)C[C@H]1CN[C@@]23CCCC[C@@H]13` are -0.1, 3.2 mg/kg, 3.5 mg/kg and 86 nM.
Turning to `c1ccc2c(c1)CC[C@@]13CCCC[C@]21NCC3`, the 50% effective dose (ED50) in data set [2] stood at 3.2 mg/kg; in data set [3] it was 3.5 mg/kg. In data set [4], this compound showed an IC50 of 151 nM.
In turn, `C[C@]12N[C@H](Cc3ccccc31)c1ccccc12` [DIZOCILPINE] returned a log distribution coefficient (logD) in data set [1] of 2.1. Also, the ED50 in data set [2] came out at 0.1 mg/kg; in data set [5], 0.34 mg/kg.
